Experimental findings from article PMC8962382, “Identification of Novel Mitochondrial Pyruvate Carrier Inhibitors by Homology Modeling and Pharmacophore-Based Virtual Screening” (Biomedicines, 2022) are described below.

Where a chain is given by its changes, count along the chain named. Read-outs that look alike come from different tables or passages of the source.

Test [1] concerns the target T1, mitochondrial pyruvate carrier (MPC) (Mus musculus, UniProt P63030+Q9D023).
T1 construct: 50 µg of mitochondrial protein was added to the chambers of an Oxygraph O2K; from tissue; host or cells: heart mitochondria of C57Bl/6J mice
T1 sequence (P63030 2-109 limits assumed): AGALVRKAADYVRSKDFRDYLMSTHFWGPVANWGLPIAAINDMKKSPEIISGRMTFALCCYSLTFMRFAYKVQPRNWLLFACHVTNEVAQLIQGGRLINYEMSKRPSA
T1 sequence (Q9D023 1-127): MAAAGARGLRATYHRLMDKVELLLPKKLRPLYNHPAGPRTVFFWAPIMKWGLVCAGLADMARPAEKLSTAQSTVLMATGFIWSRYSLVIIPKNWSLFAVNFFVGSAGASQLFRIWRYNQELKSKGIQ
Kind of test: Inhibition of pyruvate-stimulated respiration (OCR) of isolated heart mitochondria. It counts as biochemical, mice. Conditions: for IC50: Table 1, inhibiting mitochondrial pyruvate respiration, isolated heart mitochondria. How it is done:
Hearts were removed from mice after CO2 asphyxiation and homogenized in buffer containing 250 mM sucrose, 10 mM Tris base, and 1 mM EDTA (pH = 7.4) by 8–10 passes of a glass-on-glass Dounce homogenizer on ice. Homogenates were centrifuged at 1000× g for 5 min at 4 °C to pellet nuclei and undisrupted cells. The supernatants were then centrifuged at 10,000× g for 10 min at 4 °C to enrich for mitochondria; this mitochondrial pellet was washed and re-pelleted twice in fresh sucrose/tris buffer. The mitochondrial pellet was then solubilized in ~150 μL of Mir05 respiration buffer (0.5 mM EGTA, 3 mM MgCl2, 60 mM lactobionic acid, 20 mM taurine, 10 mM KH2PO4, 20 mM HEPES, 110 mM sucrose and 1 g/L of fatty acid free bovine serum albumin; pH 7.1). Mitochondrial protein content was then measured by BCA; 50 µg of mitochondrial protein was added to the chambers of an Oxygraph O2K (Oroboros Instruments), with a total volume of 2 mL Mir05 buffer set to 37 °C. Respiration was stimulated with 5 mM pyruvate/2 mM malate and 2 mM ADP. After obtaining steady state respiration measurements, compounds were added to the chamber at the indicated concentrations. Then, 5 mM succinate was added to determine inhibitor specificity towards pyruvate-stimulated respiration. Steady-state rates of oxygen consumption were assessed for 1–2 min before addition of subsequent substrate or inhibitor. Oxygen consumption rates (OCR) were calculated from the change in oxygen concentration over time and normalized to 50 µg of mitochondria within the chamber.

Test [2] deals with T2, Human MPC1 and MPC2 (WT MPC BRET constructs) (Homo sapiens, UniProt O95563+Q9Y5U8).
T2 construct: expressed in transfected cells; host or cells: U2OS cells, transient transfection
T2 sequence (Q9Y5U8 2-109 limits assumed): T1 sequence (P63030 2-109 limits assumed) with V84A, N99K, Y100H, S103T, R105T, P106A
T2 sequence (O95563 1-127): T1 sequence (Q9D023 1-127) with A2S, M17L, L23M, K26E, T73A, S105A, S123A, G125A, I126H, Q127K
Nature of the test: BRET-based MPC reporter assay in U2OS cells (MPC1-mCherry / MPC2-NLuc). In kind it is cell-based. Conditions: for BRET activity: test compounds dosed at 10 μM, U2OS cells, WT MPC BRET constructs; for BRET assay activation: WT MPC. On the procedure:
Based on the success of a previously described MPC BRET reporter assay, we developed our own BRET assay using more recently adopted BRET donor and acceptor pairs. In this assay, Nanoluciferase is used as the BRET donor, and mCherry fluorescent protein is used as the BRET acceptor. Human MPC1 and MPC2 cDNA constructs with stop codon removed for C-terminal tagging were obtained from the Harvard PlasmID repository. […] Site-directed mutagenesis (Agilent) was then performed to delete linking regions between the MPC proteins and C-terminal tags.
For BRET assays, U2OS cells were transiently transfected with MPC1-mCherry and MPC2-NLuc constructs and, 24 h later, plated onto 9 columns of a clear-bottom white 96-well plate at 10,000 cells/well. As a BRET control, some cells were transfected with MPC2-NLuc only, and these cells plated on the remaining 3 columns of the 96-well plate at 10,000 cells/well. The following day, cells were washed with PBS and starved in phenol red-, glucose-, and pyruvate-free Dulbecco’s Modified Eagle’s Medium (DMEM) for 3 h. Cells were then washed in PBS and then provided PBS with 1 mM CaCl2 and 0.5 mM MgCl2 plus 2 μg/mL coelenterazine h BRET substrate, a white sticker applied to the bottom of the plate, and the plate immediately placed into a BioTek Synergy plate reader. […] After several baseline readings, the plate was ejected, and test substrates/compounds were manually pipetted into the wells. […] All data was then normalized to the values immediately prior to compound injection. Data were either reported as curves over time or average normalized BRET of the several readings immediately after compound injections. For testing pyruvate/inhibitor-binding residues, point mutations were made in MPC1 or MPC2 constructs by site-directed mutagenesis (Agilent); BRET assays were performed the same as above. All of these assays contained 96-well plates directly comparing cells expressing WT MPC and mutant BRET constructs.

Test [3] relates to MPC1-F66A or MPC2-K49A. Nature of the test: BRET-based MPC reporter assay with mutant MPC constructs. Conditions: magnitude much less than in WT-expressing cells. In kind it is cell-based, Human. How it is done:
For BRET assays, U2OS cells were transiently transfected with MPC1-mCherry and MPC2-NLuc constructs and, 24 h later, plated onto 9 columns of a clear-bottom white 96-well plate at 10,000 cells/well. As a BRET control, some cells were transfected with MPC2-NLuc only, and these cells plated on the remaining 3 columns of the 96-well plate at 10,000 cells/well. The following day, cells were washed with PBS and starved in phenol red-, glucose-, and pyruvate-free Dulbecco’s Modified Eagle’s Medium (DMEM) for 3 h. Cells were then washed in PBS and then provided PBS with 1 mM CaCl2 and 0.5 mM MgCl2 plus 2 μg/mL coelenterazine h BRET substrate, a white sticker applied to the bottom of the plate, and the plate immediately placed into a BioTek Synergy plate reader. Luminescence was then read repeatedly from the top of the plate at emission wavelengths of 485/20 nm and 640/40 nm for NLuc and mCherry signals, respectively. After several baseline readings, the plate was ejected, and test substrates/compounds were manually pipetted into the wells. […] To calculate BRET activity, at each reading interval, the luminescence of 620 nm emission wavelength was divided by the 485 nm emission wavelength, and the values from the MPC2-Nluc-only expressing cells were subtracted from the cells expressing both constructs. […]

As usually defined, the IC50 is the point on the concentration scale where inhibition reaches its midpoint. `O=C(NC(Cc1c[nH]c2ccccc12)C(=O)O)C1CC1` (stereo not shown) [BE1975]: the “MPC inhibitory activity” value in test [1] (SAR statement) is reported as “abolished activity”. Moreover, in test [1], the IC50 result is “inactive”.
As to `Cc1nn(-c2ccccc2)c(C)c1/C=C(\C#N)C(=O)O` [BE1980, (E)-2-Cyano-3-(3,5-Dimethyl-1-Phenyl-4-Pyrazolyl)acrylic Acid], the IC50 in test [1] (read-out: IC50) was 162 nM. The BRET activity entry in test [2] is recorded as “increased BRET activity”.
`N#C/C(=C\c1c[nH]nc1-c1cccc(Br)c1)C(=O)O` [BE1985]: in test [1] (read-out: IC50), the IC50 was 638 nM. For the same molecule, in test [1] (ratio of IC50 values), the “fold less potent than BE1978” value is listed as 5 fold and the “fold less potent than BE1980” value is given as 4 fold. In test [2], the BRET activity entry is reported as “increased BRET activity”.
On to `CCOC(=O)/C(C#N)=C/c1c[nH]nc1C(C)(C)C` [BE1988], for which, in test [1], the IC50 entry is “inactive”.
For the molecule `N#C/C(=C\c1n[nH]cc1-c1ccccc1)C(=O)O` [BE2617, (E)-2-Cyano-3-(4-Phenyl-3-Pyrazolyl)acrylic Acid], in test [1] (read-out: IC50), the IC50 amounted to 39 nM. Also, the “fold more potent than UK-5099” value in test [1] (ratio of IC50 values) came to 6 fold. Also, in test [2], the BRET activity entry was “showed activity”.
As to `Cc1ccc(-c2c[nH]nc2/C=C(\C#N)C(=O)O)cc1` [BE2623, (E)-2-Cyano-3-[4-(p-Tolyl)-3-Pyrazolyl]acrylic Acid], the IC50 in test [1] (read-out: IC50) worked out at 731 nM. The “fold less potent than UK-5099” value in test [1] (inhibiting the respiration) came out at 3 fold. The “fold less potent than BE2617” value in test [1] (ratio of IC50 values) was “more than 18 fold”. Further, the BRET activity result in test [2] is on record as “showed activity”.
In the case of `COc1cccc(C(=O)COc2ccc(CC3SC(=O)[N-]C3=O)cc2)c1.[K+]` (stereo not shown) [MSDC-0602K, reference compound], the “BRET activity in mutants” value in test [3] is “small, but significant, activation of BRET activity”. In addition, in test [2] (10 μM MSDC-0602K vs DMSO vehicle), the BRET assay activation entry is given as “activated”.
As for `N#C/C(=C\c1cn(-c2ccccc2)c2ccccc12)C(=O)O` [UK-5099, reference compound], in test [1] (read-out: IC50), the IC50 turned out to be 241 nM. In addition, the “BRET activity in mutants” value in test [3] is recorded as “small, but significant, activation of BRET activity”. Further, the BRET assay activation result in test [2] (5 μM UK-5099 vs DMSO vehicle) is on record as “activated”.
In the case of `CC(=O)C(=O)O` [pyruvate], the BRET assay activation result in test [2] (5 mM pyruvate vs DMSO vehicle) is “activated”.
